Reference: patent US4902690A, “Pest controlling compositions” (The General Hospital Corporation, priority 1988, dated 1990)
“And” between values parts separate entries of the source, which are not always exact repeats. Identical values can stand only once. Like-named read-outs stand apart in the source and are kept apart here.

What was measured:
[1] = test system: octopamine-sensitive adenylate cyclase (firefly lantern octopamine receptor); assay: Octopamine-sensitive adenylate cyclase activation, firefly light organ broken cell preparation; format: biochemical, firefly (Photinus pyralis); details: for Ka ratio / Vmax: FIG. 1, formamidines; for Vmax: % of octopamine
[2] = test system: tobacco hornworms (Manducca sexta); assay: In vivo leaf test (feeding on sprayed tomato leaves); details: for effect of adding IBMX on antifeeding / pesticidal activity of the compound: IBMX 0.1%, FIGS. 9, 10, 17, Tables 4, 7, 8, FIG. 9 at 72 hours
Manducca eggs = assay: Ovacidal test (eggs dipped in drug solutions); format: in vivo, Manducca sexta
Protocol: In some cases, test agents were tested for ovacidal activity by dipping groups of 10-50 Manducca eggs in drug solutions for 60 seconds and then determining the percentage of eggs which produced viable larvae. A compound or synergist with active ovacidal activity was one which decreased the percentage of eggs hatched, relative to control.

[3] = Table 1, phenylethylamines, >1 = better than (±)-p-octopamine
[4] = Table 1, phenylethylamines, maximal activation as % of that by (±)-p-octopamine, N.A. = No Activity
[5] = agonist 1 gm/100 ml + PDE Inhibitor IBMX 0.1 g/100 ml
[6] = agonist 1 gm/100 ml, No PDE Inhibitor
[7] = agonist 10^-1 gm/100 ml + PDE Inhibitor IBMX 0.1 g/100 ml
[8] = agonist 10^-1 gm/100 ml, No PDE Inhibitor
[9] = agonist 10^-2 gm/100 ml + PDE Inhibitor IBMX 0.1 g/100 ml
[10] = agonist 10^-2 gm/100 ml, No PDE Inhibitor
[11] = Table 2, clonidines, N.A. = no activity
[12] = Table 2, inhibitory properties at the octopamine receptor
[13] = agonist 0.3 (3 × 10^-1) gm/100 ml + PDE Inhibitor IBMX 0.1 g/100 ml
[14] = agonist 0.3 (3 × 10^-1) gm/100 ml, No PDE Inhibitor
[15] = agonist 10^-3 gm/100 ml + PDE Inhibitor IBMX 0.1 g/100 ml
[16] = agonist 10^-3 gm/100 ml, No PDE Inhibitor
[17] = agonist 10^-4 gm/100 ml + PDE Inhibitor IBMX 0.1 g/100 ml
[18] = agonist 10^-4 gm/100 ml, No PDE Inhibitor
[19] = agonist 1 gm/100 ml + IBMX 0.1 g/100 ml
[20] = agonist 10^-1 gm/100 ml + IBMX 0.1 g/100 ml
[21] = agonist 10^-2 gm/100 ml + IBMX 0.1 g/100 ml

CNCC(O)c1ccc(O)cc1 (racemic) [(±)-Nmethyloctopamine]
Ka^oct /Ka^B ratio [1, 3]: 1.8 | Vmax (% OCT) [1, 4]: 108 ± 10 % OCT | % Leaf Remaining [2, 5]: 90% | % Leaf Remaining [2, 6]: 30% | % Leaf Remaining [2, 7]: 55% | % Leaf Remaining [2, 8]: < 5% | % Leaf Remaining [2, 9]: 42% | % Leaf Remaining [2, 10]: < 5%

NC[C@H](O)c1ccc(O)c(O)c1 [(-)-nonrepinephrine]
Ka^oct /Ka^B ratio [1, 3]: 0.13 | Vmax (% OCT) [1, 4]: 72 ± 1 % OCT

CNC(C)C(O)c1ccc(O)cc1 (racemic) [(±)-α-methylsynephrine]
Ka^oct /Ka^B ratio [1, 3]: < 0.01 | Vmax (% OCT) [1, 4]: 7 ± 2 % OCT

NC[C@H](O)c1ccc(O)cc1 [(-)-p-octopamine]
Vmax (% OCT) [1, 4]: 101 ± 2 % OCT

NCCc1ccc(O)cc1 [tyramine]
Ka^oct /Ka^B ratio [1, 3]: 0.15 | Vmax (% OCT) [1, 4]: 57 ± 1 % OCT

NCC(O)c1ccc(Cl)cc1Cl (stereo not shown) [2,4-dichlorophenylethanolamine]
% Leaf Remaining [2, 5]: 80% | % Leaf Remaining [2, 6]: 10% | % Leaf Remaining [2, 7]: 50% | % Leaf Remaining [2, 8]: < 5% | % Leaf Remaining [2, 9]: 30% | % Leaf Remaining [2, 10]: < 5%

C[C@H](N)[C@H](O)c1ccccc1 (relative stereo) [(±)-norephedrine]
Ka^oct /Ka^B ratio [1, 3]: < 0.09 | Vmax (% OCT) [1, 4]: 8 ± 1 % OCT

Brc1ccc(N=C2NCCN2)cc1 [NC 12]
Ka^oct /Ka^B ratio [1, 11]: 3.0

NCCc1ccc(O)c(O)c1 [dopamine]
Ka^oct /Ka^B ratio [1, 3]: 0.26 | Vmax (% OCT) [1, 4]: 4 ± 1 % OCT

NCC(O)c1ccc(O)c(Cl)c1 (stereo not shown) [m-chloro-octopamine]
Ka^oct /Ka^B ratio [1, 3]: 0.28 | Vmax (% OCT) [1, 4]: 77 ± 1 % OCT

Clc1ccc(Cl)c(N=C2NCCN2)c1 [NC 2]
Ka^oct /Ka^B ratio [1, 11]: 1.1 | Ki [1, 12]: 23 µM

Nc1cc(Cl)c(N=C2NCCN2)c(Cl)c1 [NC 14]
Ka^oct /Ka^B ratio [1, 11]: 0.7 | Ki [1, 12]: 440 µM

CNC[C@H](O)c1ccc(O)c(O)c1 [(-)-epinephrine]
Ka^oct /Ka^B ratio [1]: 0.20 | Vmax (% OCT) ([1]; light organ homogenate): 75 ± 2 % OCT

CCc1cccc(CC)c1N=C1NCCN1 [NC 5]
Ka^oct /Ka^B ratio [1, 11]: 19.0 and ~20 | effect of adding IBMX on antifeeding / pesticidal activity of the compound [2]: substantial increases in the potency | % Leaf Remaining [2, 13]: 70% | % Leaf Remaining [2, 14]: 40% | % Leaf Remaining [2, 7]: 45% | % Leaf Remaining [2, 8]: 30% | % Leaf Remaining [2, 9]: 30% | % Leaf Remaining [2, 10]: 15% | % Leaf Remaining [2, 15]: 17% | % Leaf Remaining [2, 16]: 10%

CNC=Nc1ccc(Cl)cc1C [DCDM, mono-demethylchlordimeform]
more potent than DDCDM against the octopamine receptor [1]: 50% | Ka ratio [1]: 6 | Vmax [1]: 76% | % Leaf Remaining [2, 9]: 98% | % Leaf Remaining [2, 10]: 95% | % Leaf Remaining [2, 15]: 90% | % Leaf Remaining [2, 16]: 45% | % Leaf Remaining [2, 17]: 75% | % Leaf Remaining [2, 18]: < 5% | % Living Larvae (Manducca eggs; [19]): 2% | % Living Larvae (Manducca eggs; [6]): 2% | % Living Larvae (Manducca eggs; [20]): 3% | % Living Larvae (Manducca eggs; [8]): 50% | % Living Larvae (Manducca eggs; [21]): 10% | % Living Larvae (Manducca eggs; [10]): 50%

Brc1cccc(Br)c1N=C1NCCN1 [NC 6]
Ka^oct /Ka^B ratio [1, 11]: 2.1

CN(C)c1cc(Cl)c(N=C2NCCN2)c(Cl)c1 [NC 15]
Ka^oct /Ka^B ratio [1, 11]: 1.9

Cc1cc(C)c(N=C2NCCN2)c(C)c1 [NC 13]
Ka^oct /Ka^B ratio [1, 11]: 4.3

COc1cc(C(O)CN)ccc1O (racemic) [(±)-normetanephrine]
Ka^oct /Ka^B ratio [1, 3]: 0.07 | Vmax (% OCT) [1, 4]: 68 ± 2 % OCT

Clc1cccc(Cl)c1N=C1NCCN1 [clonidine]
Ka^oct /Ka^B ratio [1]: 0.95 | Ki [1]: 20 µM | effect of adding IBMX on antifeeding / pesticidal activity of the compound [2]: substantial increases in the potency | % Leaf Remaining [2, 5]: 63% | % Leaf Remaining [2, 6]: 65% | % Leaf Remaining [2, 7]: 55% | % Leaf Remaining [2, 8]: 20% | % Leaf Remaining [2, 9]: 55% | % Leaf Remaining [2, 10]: 5%

Nc1ncnc2c1nc(Sc1ccc(Cl)cc1)n2[C@@H]1O[C@@H]2COP(=O)(O)O[C@H]2[C@H]1O [p-Cl-phenylthio cyclic AMP, 8-p-chlorophenylthio-cyclic AMP]
antifeeding activity in the absence of IBMX ([2]; concentration of 1%, FIGS. 18, 19): some antifeeding activity

COc1ccc(CCN)cc1 [p-methoxphenylethylamine]
Ka^oct /Ka^B ratio [1, 3]: 0.10 | Vmax (% OCT) [1, 4]: 6 ± 3 % OCT

c1ccc(N=C2NCCN2)cc1 [NC 10]
Ki [1, 12]: 190 µM | antifeeding activity of the compound by itself ([2]; FIGS. 10, 13, 17, Table 8): inactive in vivo | effect of adding IBMX on antifeeding / pesticidal activity of the compound [2]: not synergized by the PDE inhibitor | % Leaf Remaining [2, 5]: 15% | % Leaf Remaining [2, 6]: 5% | % Leaf Remaining [2, 7]: 13% | % Leaf Remaining [2, 8]: 5% | % Leaf Remaining [2, 9]: 15% | % Leaf Remaining [2, 10]: 5% | % Leaf Remaining [2, 15]: 12% | % Leaf Remaining [2, 16]: 5%

CC(N)C(O)c1ccc(O)cc1 (racemic) [(±)-α-methyloctopamine]
Ka^oct /Ka^B ratio [1, 3]: 0.05 | Vmax (% OCT) [1, 4]: 44 ± 2 % OCT

Clc1cc(Cl)c(N=C2NCCN2)cc1Cl [NC 3]
Ka^oct /Ka^B ratio [1, 11]: 2.8

Cc1ccc(N=C2NCCN2)c(C)c1 [NC 9]
Ka^oct /Ka^B ratio [1, 11]: 5.1

CNC[C@H](O)c1cccc(O)c1 [(-)-phenylephrine]
Ka^oct /Ka^B ratio [1, 3]: < 0.2 | Vmax (% OCT) [1, 4]: 17 ± 1 % OCT

CC(N)Cc1ccc(O)cc1 (racemic) [(±)-p-hydroxyamphetamine]
Ka^oct /Ka^B ratio [1, 3]: < 0.05 | Vmax (% OCT) [1, 4]: 8 ± 3 % OCT

NCC(O)c1ccccc1O (racemic) [(±)-o-octopamine]
Ka^oct /Ka^B ratio [1, 3]: 0.05 | Vmax (% OCT) [1, 4]: 23 ± 1 % OCT

CNCCc1ccc(O)c(O)c1 [Nmethyldopamine]
Ka^oct /Ka^B ratio [1, 3]: 0.19 | Vmax (% OCT) [1, 4]: 11 ± 1 % OCT

Clc1ccc(N=C2NCCN2)c(Cl)c1 [NC 8]
Ka^oct /Ka^B ratio [1, 11]: 3.7

Cc1cc(Cl)ccc1N=CN(C)C [CDM, chlordimeform]
Ka ratio [1]: 0.5 | Vmax [1]: about 10% | % Leaf Remaining [2, 5]: 90% | % Leaf Remaining [2, 6]: 90% | % Leaf Remaining [2, 7]: 90% | % Leaf Remaining [2, 8]: 70% | % Leaf Remaining [2, 9]: 85% | % Leaf Remaining [2, 10]: < 5% | % Leaf Remaining [2, 15]: 65% | % Leaf Remaining [2, 16]: < 5% | % Leaf Remaining [2, 17]: 50% | % Leaf Remaining [2, 18]: < 5% | % Living Larvae (Manducca eggs; [19]): 2% | % Living Larvae (Manducca eggs; [6]): 2% | % Living Larvae (Manducca eggs; [20]): 10% | % Living Larvae (Manducca eggs; [8]): 25% | % Living Larvae (Manducca eggs; [21]): 10% | % Living Larvae (Manducca eggs; [10]): 60%

CC(C)NC[C@H](O)c1ccc(O)c(O)c1 [(-)-isoproterenol]
Vmax (% OCT) [1, 4]: 19 ± 1 % OCT

Cc1cccc(C)c1N=C1NCCN1 [NC 4]
Ka^oct /Ka^B ratio [1, 11]: 0.41

NCC(O)c1ccc(F)cc1 (stereo not shown) [p-fluoro-phenylethanolamine]
% Leaf Remaining [2, 13]: 95% | % Leaf Remaining [2, 14]: 25% | % Leaf Remaining [2, 7]: 98% | % Leaf Remaining [2, 9]: 80% | % Leaf Remaining [2, 15]: 50% | % Leaf Remaining [2, 16]: < 5%

CN(CCCl)c1cc(Cl)c(N=C2NCCN2)c(Cl)c1 [NC 16]
Ki [1]: 10 µM | Ka^oct /Ka^B ratio [1, 11]: 4.8

Clc1cc(Cl)c(N=C2NCCN2)c(Cl)c1 [NC 11]
Ka^oct /Ka^B ratio [1, 11]: 1.9

NCCc1ccccc1 [β-phenylethylamine]
Ka^oct /Ka^B ratio [1, 3]: 0.03 | Vmax (% OCT) [1, 4]: 13 ± 2 % OCT

NCC(O)c1cccc(O)c1 (racemic) [(±)-m-octopamine]
Ka^oct /Ka^B ratio [1, 3]: 0.1 | Vmax (% OCT) [1, 4]: 9 ± 1 % OCT | effect of adding IBMX on antifeeding / pesticidal activity of the compound [2]: failed to increase pesticidal activity

CN(C)CC(O)c1ccc(O)cc1 (racemic) [(±)-N,Ndimethyloctopamine]
Ka^oct /Ka^B ratio [1, 3]: 0.9 | Vmax (% OCT) [1, 4]: 43 ± 4 % OCT
